Read-outs that look alike come from different tables or passages of the source. Some results are limits rather than exact numbers.

Ki or IC50 activity class and Ki data for 30 molecules are collected here from patent US8802664B2 (Bioproject, priority 2010, dated 2014).

This assay concerns the target T1, human H4 receptor (Homo sapiens, UniProt Q9H3N8).
T1 construct: expressed in transfected cells
Description: [3H]Histamine binding on membranes of CHO cells stably expressing human H4 receptor. The gist of the method:
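CHO-hH4 membranes 20 μg/well; buffer 50 mM Tris/HCl, 0.5 mM EDTA, pH 7.4; NSB: 10 μM JNJ 7777120 (BP1.2404); GF/B filtration (PEI-presoaked), 3 ice-cold washes; scintillation counting.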

Where [1] appears, read: human H4 receptor, evaluated in the GTPγ[35S] assay or in the [3H]histamine binding assay (not stated which per compound), Ki or IC50 class.

T1 sequence (Q9H3N8 whole entry): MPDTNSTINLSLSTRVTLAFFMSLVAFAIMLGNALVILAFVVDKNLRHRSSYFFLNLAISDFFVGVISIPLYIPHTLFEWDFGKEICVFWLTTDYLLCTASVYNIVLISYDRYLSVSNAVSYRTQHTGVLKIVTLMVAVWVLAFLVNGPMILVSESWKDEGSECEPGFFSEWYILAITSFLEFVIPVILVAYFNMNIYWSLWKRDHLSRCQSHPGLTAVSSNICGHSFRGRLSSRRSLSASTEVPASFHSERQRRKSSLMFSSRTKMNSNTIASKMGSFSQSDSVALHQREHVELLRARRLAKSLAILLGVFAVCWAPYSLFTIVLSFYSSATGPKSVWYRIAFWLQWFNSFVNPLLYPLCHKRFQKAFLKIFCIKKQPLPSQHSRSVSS

With `Cc1ccc(C(OC2CCN(C)CC2)c2nc3ccccc3o2)c(F)c1` (stereo not drawn) [Example 545], the Ki or IC50 activity class was under 300 nM.

With `CN1CCC(OC(c2cccc(C#CCCCCN)c2)c2nc3ccccc3n2C)CC1` (stereo not drawn) [Example 480, 6-{3-[(1-methyl-1H-benzimidazol-2-yl)(1-methylpiperidin-4-yloxy)methyl]phenyl}hex-5-ynylamine], the Ki or IC50 activity class is under 300 nM.

The molecule `CN1CCC(OC(c2cccc(C#CCO)c2)c2nc3ccccc3s2)CC1` (stereo not drawn) [Example 227, 3-{3-[benzothiazol-2-yl(1-methylpiperidin-4-yloxy)methyl]phenyl}prop-2-yn-1-ol] gave a Ki or IC50 activity class of under 30 nM.

Molecule `CSc1cccc(C(OC2CCN(C)CC2)c2nc3ccccc3s2)c1` (stereo not drawn) [Example 201, 2-[(1-methylpiperidin-4-yloxy)(3-methylsulfanyl-phenyl)methyl]benzothiazole] showed a Ki or IC50 activity class of under 30 nM.

In the case of `CN1CCC(OC(c2cccc(SCCNC(=N)NC(=O)C(C)(C)C)c2)c2nc3ccccc3[nH]2)CC1` (stereo not drawn) [Example 446], for the setting “read-out: Activity (Ki or IC50)”, the Ki (as a rule, a dissociation constant, usually derived from enzyme kinetics or from competition with a known ligand) was under 300 nM.

Under setting [1], “4-[benzothiazol-2-yl(3-bromo-phenyl)methoxy]-1,1-dimethylpiperidinium [Example 188]” had a Ki or IC50 activity class of under 30 nM.

In turn, `CN1CCC(OC(c2cccc(SCCO)c2)c2nc3ccccc3s2)CC1` (single isomer, unassigned) [Example 229, 2-{3-[benzothiazol-2-yl(1-methylpiperidin-4-yloxy)methyl]phenylsulfanyl}ethanol] registered a Ki or IC50 activity class of under 30 nM.

`CSc1cccc(-c2cccc(C(OC3CCN(C)CC3)c3nc4ccccc4s3)c2)c1` (stereo not drawn) [Example 128, 2-[(1-methylpiperidin-4-yloxy)(3′-methylsulfanylbiphenyl-3-yl)methyl]benzothiazole] registered a Ki or IC50 activity class of under 300 nM.

Molecule `CN1CCC(OC(c2ccc3c(c2)OCO3)c2nc3ccccc3s2)CC1` (stereo not drawn) [Example 20, 2-[benzo[1,3]dioxol-5-yl(1-methylpiperidin-4-yloxy)methyl]benzothiazole] displayed a Ki or IC50 activity class of under 300 nM.

Molecule `CN1CCC(OC(c2cccc(CCCCCCNC(=N)N)c2)c2nc3ccccc3[nH]2)CC1` (stereo not drawn) [Example 355, N-(6-{3-[(1H-benzimidazol-2-yl)(1-methylpiperidin-4-yloxy)methyl]phenyl}hexyl)guanidine] displayed a Ki or IC50 activity class of under 300 nM.

`CN1CCC(OC(c2cccc(Br)c2)c2nc3ccccc3[nH]2)CC1` (stereo not drawn) [Example 78, 2-[(3-bromophenyl)(1-methylpiperidin-4-yloxy)methyl]-1H-benzimidazole] gave a Ki or IC50 activity class of under 300 nM.

For `COc1ccc(-c2cccc(C(NC3CCN(C)CC3)c3nc4ccccc4s3)c2)cc1` (stereo not drawn) [Example 211, [benzothiazol-2-yl(4′-methoxybiphenyl-3-yl)methyl](1-methylpiperidin-4-yl)amine], the Ki or IC50 activity class was under 300 nM.

For the molecule `CN1CCC(OC(c2cccc(SCC=CCN)c2)c2nc3ccccc3[nH]2)CC1` (stereo not drawn) [Example 474], the Ki or IC50 activity class under setting [1] was under 30 nM.

`CN1CCC(OC(c2cccc(OCCN3CCN(C(=O)OC(C)(C)C)CC3)c2)c2nc3ccccc3[nH]2)CC1` (stereo not drawn) [Example 369, 4-(2-{3-[(1H-benzimidazol-2-yl)(1-methylpiperidin-4-yloxy)methyl]phenoxy}ethyl)piperazine-1-carboxylic acid tert-butyl ester] registered a Ki or IC50 activity class of under 1000 nM.

In turn, `CN1CCC(OC(c2cccc(C#CCCN)c2)c2nc3ccccc3[nH]2)CC1` (stereo not drawn) [Example 286, 4-{3-[(1H-benzimidazol-2-yl)(1-methylpiperidin-4-yloxy)methyl]phenyl}but-3-ynylamine] showed a Ki or IC50 activity class of under 300 nM.

In turn, `CN1CCC(OC(c2nc3ccccc3[nH]2)c2cc(OCCF)ccc2F)CC1` (stereo not drawn) [Example 489] had a Ki or IC50 activity class of under 30 nM.

Consider `CN1CCC(OC(c2cccc(OCCCn3cncn3)c2)c2nc3ccccc3s2)CC1` (stereo not drawn) [Example 348, 2-{(1-methylpiperidin-4-yloxy)[3-(3-[1,2,4]triazol-1-yl-propoxy)phenyl]methyl}benzothiazole], for which the Ki or IC50 activity class is under 1000 nM.

For `C=CCOc1cccc(C(OC2CCN(C)CC2)c2nc3ccccc3s2)c1` (stereo not drawn) [Example 22, 2-[(3-allyloxyphenyl)(1-methylpiperidin-4-yloxy)methyl]benzothiazole], the Ki or IC50 activity class was under 30 nM.

`CN1CCC(OC(c2cccc(N3CCC(N(C)C)C3)c2)c2nc3ccccc3s2)CC1` (stereo not drawn) [Example 484] had a Ki or IC50 activity class of under 30 nM.

Consider `CNC(=O)CSc1cccc(C(OC2CCN(C)CC2)c2nc3ccccc3s2)c1` (stereo not drawn) [Example 259, 2-{3-[benzothiazol-2-yl(1-methylpiperidin-4-yloxy)methyl]phenylsulfanyl}-N-methylacetamide], for which the Ki or IC50 activity class is under 300 nM.

Molecule `CN1CCC(OC(c2cccc(-c3ccccc3Cl)c2)c2nc3ccccc3[nH]2)CC1` (stereo not drawn) [Example 121, 2-[(2′-Chlorobiphenyl-3-yl)(1-methylpiperidin-4-yloxy)methyl]-1H-benzimidazole] came in with a Ki or IC50 activity class of under 300 nM.

For the molecule `CN1CCC(OC(c2cccc(NCc3ccccc3)c2)c2nc3ccccc3s2)CC1` (stereo not drawn) [Example 234, {3-[benzothiazol-2-yl(1-methylpiperidin-4-yloxy)methyl]phenyl}benzyl-amine], the Ki or IC50 activity class is under 300 nM.

Turning to `CC(C)Oc1cccc(C(OC2CCN(C)CC2)c2nc3ccccc3s2)c1` (stereo not drawn) [Example 55, 2-[(3-isopropoxyphenyl)(1-methylpiperidin-4-yloxy)methyl]benzothiazole], the Ki or IC50 activity class was under 30 nM.

The molecule `CN1CCC(OC(c2cccc(SCCn3nccn3)c2)c2nc3ccccc3s2)CC1` (stereo not drawn) [Example 240, 2-{(1-methylpiperidin-4-yloxy)[3-(2-[1,2,3]triazol-2-yl-ethylsulfanyl)phenyl]methyl}benzothiazole] gave a Ki or IC50 activity class of under 300 nM.

For `COc1cccc(COc2cccc(C(NC3CCN(C)CC3)c3nc4ccccc4[nH]3)c2)c1` (stereo not drawn) [Example 125, {(1H-benzimidazol-2-yl)[3-(3-methoxybenzyloxy)phenyl]methyl}(1-methylpiperidin-4-yl)amine], the Ki or IC50 activity class is under 30 nM.

`CN1CCC(OC(c2cccc(CCCCCCN)c2)c2nc3ccccc3s2)CC1` (stereo not drawn) [Example 325, 6-{3-[benzothiazol-2-yl(1-methylpiperidin-4-yloxy)methyl]phenyl}hexylamine] returned a Ki or IC50 activity class of under 30 nM.

The molecule `CN1CCC(OC(c2cccc(SCCNC3=NCCS3)c2)c2nc3ccccc3[nH]2)CC1` (stereo not drawn) [Example 299, (2-{3-[(1H-benzimidazol-2-yl)(1-methylpiperidin-4-yloxy)methyl]phenyl-sulfanyl}ethyl)(4,5-dihydrothiazol-2-yl)amine] showed a Ki or IC50 activity class of under 1000 nM.

Regarding `CN1CCC(OC(c2cccc(N3CCC(N)C3)c2)c2nc3ccccc3s2)CC1` (stereo not drawn) [Example 429, 1-{3-[benzothiazol-2-yl(1-methylpiperidin-4-yloxy)methyl]phenyl}pyrrolidin-3-ylamine], the Ki or IC50 activity class under setting [1] is under 300 nM.

The molecule `COc1cccc(COc2cccc(C(OC3CCN(C)CC3)c3nc4ccccc4s3)c2)c1` (stereo not drawn) [Example 185, 2-[[3-(3-methoxybenzyloxy)phenyl](1-methylpiperidin-4-yloxy)methyl]benzothiazole] returned a Ki or IC50 activity class of under 30 nM.

In turn, `CN1CCC(OC(c2cccc(SCCCCN)c2)c2nc3cc(F)c(F)c(F)c3[nH]2)CC1` (stereo not drawn) [Example 493] showed a Ki or IC50 activity class of under 30 nM.
